Experimental data: PubChem BioAssay AID248 (DTP/NCI, 2004)
“And” between values parts separate entries of the source, which are not always exact repeats. Equal entries are not always repeated. Toxic doses and inconclusive results are not listed. Cut-off read from the data, not from the text of the source: active = T/C of 150% or more; inactive = T/C below 125%.

System: L1210 leukemia ip in BDF1 mice, survival T/C
Test: NCI In Vivo Anticancer Drug Screen. Data for tumor model L1210 Leukemia (intraperitoneal) in B6D2F1 (BDF1) mice
Conditions: endpoint: mean survival time, higher = longer survival
Summary of the method: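 Mice bearing the transplanted tumor received compound or vehicle. Survival of the treated group was divided by that of the vehicle-treated control group to give the ratio.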

[1] = dose: 20.0 mg/kg/injection, schedule: Q01DX001 (ip), vehicle: saline
[2] = dose: 100.0 mg/kg/injection, schedule: Q01DX001 (ip), vehicle: carboxymethylcellulose (CMC)
[3] = dose: 200.0 mg/kg/injection, schedule: Q01DX001 (ip), vehicle: carboxymethylcellulose (CMC)
[4] = dose: 400.0 mg/kg/injection, schedule: Q01DX001 (ip), vehicle: carboxymethylcellulose (CMC)
[5] = dose: 100.0 mg/kg/injection, schedule: Q04DX002 (ip), vehicle: Klucel (hydroxypropylcellulose) (HPC)
[6] = dose: 200.0 mg/kg/injection, schedule: Q04DX002 (ip), vehicle: Klucel (hydroxypropylcellulose) (HPC)
[7] = dose: 400.0 mg/kg/injection, schedule: Q04DX002 (ip), vehicle: Klucel (hydroxypropylcellulose) (HPC)
[8] = dose: 100.0 mg/kg/injection, schedule: Q04DX003 (ip), vehicle: saline with Tween-80
[9] = dose: 200.0 mg/kg/injection, schedule: Q04DX003 (ip), vehicle: saline with Tween-80
[10] = dose: 400.0 mg/kg/injection, schedule: Q04DX003 (ip), vehicle: saline with Tween-80
[11] = dose: 100.0 mg/kg/injection, schedule: Q01DX001 (ip), vehicle: saline

Measured: T/C

Clc1ccc(C[As+](c2ccccc2)(c2ccccc2)c2ccccc2)cc1
inactive: [1] 97 % of control

CCOc1ccc(-n2c(O)c(N=Nc3ccccc3)c(=O)n(-c3ccccc3)c2=S)cc1
inactive: dose: 50.0 mg/kg/injection, schedule: Q04DX003 (ip), vehicle: acetone 94 % of control | dose: 100.0 mg/kg/injection, schedule: Q04DX003 (ip), vehicle: acetone 89 % of control | dose: 200.0 mg/kg/injection, schedule: Q04DX003 (ip), vehicle: acetone 96 % of control

Cn1c[n+](C)ccc1=O
inactive: dose: 100.0 mg/kg/injection, schedule: Q01DX009 (ip), vehicle: water 87 % of control | dose: 100.0 mg/kg/injection, schedule: Q04DX003 (ip), vehicle: water 111 % of control | dose: 200.0 mg/kg/injection, schedule: Q01DX009 (ip), vehicle: water 104 % of control | dose: 200.0 mg/kg/injection, schedule: Q04DX003 (ip), vehicle: water 106 % of control | dose: 400.0 mg/kg/injection, schedule: Q04DX003 (ip), vehicle: water 111 % of control

O=C(/C=C(/C(=O)c1ccccc1)N1CC1)c1ccccc1
inactive: dose: 50.0 mg/kg/injection, schedule: Q01DX001 (ip), vehicle: carboxymethylcellulose (CMC) 113 % of control | [2] 105 % of control | [3] 97 % of control | [4] 103 % of control

O=C1NC2C1C1c3ccccc3C2C12CC2 (stereo unspecified)
inactive: [5] 105 % of control | [6] 97 % of control | [7] 94 % of control

c1ccc(Cc2nn[nH]n2)cc1
inactive: [5] 105 % of control | [6] 101 % of control | [7] 105 % of control

O=C(Nc1cccc(C2=NCCN2)c1)c1ccc(C(=O)Nc2cccc(C3=NCCN3)c2)c(Cl)c1
inactive: dose: 0.75 mg/kg/injection, schedule: Q01DX Z (ip), vehicle: carboxymethylcellulose (CMC) 101 % of control | dose: 1.0 mg/kg/injection, schedule: Q01DX009 (ip), vehicle: saline 97 % of control | dose: 1.5 mg/kg/injection, schedule: Q01DX Z (ip), vehicle: carboxymethylcellulose (CMC) 95 % of control and 104 % of control | dose: 2.0 mg/kg/injection, schedule: Q01DX009 (ip), vehicle: saline 97 % of control | dose: 3.0 mg/kg/injection, schedule: Q01DX Z (ip), vehicle: carboxymethylcellulose (CMC) 96 % of control and 98 % of control | dose: 4.0 mg/kg/injection, schedule: Q01DX009 (ip), vehicle: saline 95 % of control | dose: 6.0 mg/kg/injection, schedule: Q01DX Z (ip), vehicle: carboxymethylcellulose (CMC) 93 % of control and 96 % of control | dose: 8.0 mg/kg/injection, schedule: Q01DX009 (ip), vehicle: saline 94 % of control | dose: 9.0 mg/kg/injection, schedule: Q01DX Z (ip), vehicle: methylcellulose (MC) 93 % of control | dose: 12.0 mg/kg/injection, schedule: Q01DX Z (ip), vehicle: carboxymethylcellulose (CMC) 95 % of control | dose: 12.0 mg/kg/injection, schedule: Q01DX Z (ip), vehicle: methylcellulose (MC) 95 % of control | dose: 18.0 mg/kg/injection, schedule: Q01DX Z (ip), vehicle: methylcellulose (MC) 109 % of control | dose: 27.0 mg/kg/injection, schedule: Q01DX Z (ip), vehicle: methylcellulose (MC) 106 % of control

O=C(O)c1c(O)cc(=O)oc1-c1ccccc1Cl
inactive: dose: 75.0 mg/kg/injection, schedule: Q01DX001 (ip), vehicle: saline 97 % of control | dose: 150.0 mg/kg/injection, schedule: Q01DX001 (ip), vehicle: saline 101 % of control | dose: 300.0 mg/kg/injection, schedule: Q01DX001 (ip), vehicle: saline 96 % of control

O=P1(Cc2ccccc2)CCC(O)=C1c1ccccc1 (stereo unspecified)
inactive: [8] 94 % of control | [9] 102 % of control | [10] 91 % of control

O=C(Nc1ccccc1C(F)(F)F)c1ccc(Cl)cc1Cl
inactive: dose: 100.0 mg/kg/injection, schedule: Q01DX009 (ip), vehicle: saline with Tween-80 91 % of control | [8] 94 % of control | dose: 200.0 mg/kg/injection, schedule: Q01DX009 (ip), vehicle: saline with Tween-80 96 % of control | [9] 92 % of control | dose: 400.0 mg/kg/injection, schedule: Q01DX009 (ip), vehicle: saline with Tween-80 89 % of control | [10] 95 % of control

CCCCOP(=O)(/C=C\c1ccccn1)OCCCC
inactive: dose: 50.0 mg/kg/injection, schedule: Q01DX009 (ip), vehicle: carboxymethylcellulose (CMC) 95 % of control and 97 % of control | dose: 50.0 mg/kg/injection, schedule: Q04DX003 (ip), vehicle: carboxymethylcellulose (CMC) 96 % of control | dose: 100.0 mg/kg/injection, schedule: Q01DX009 (ip), vehicle: carboxymethylcellulose (CMC) 94 % of control and 101 % of control | dose: 100.0 mg/kg/injection, schedule: Q04DX002 (ip), vehicle: carboxymethylcellulose (CMC) 100 % of control and 102 % of control | dose: 100.0 mg/kg/injection, schedule: Q04DX003 (ip), vehicle: carboxymethylcellulose (CMC) 108 % of control | dose: 200.0 mg/kg/injection, schedule: Q01DX009 (ip), vehicle: carboxymethylcellulose (CMC) 102 % of control and 117 % of control | dose: 200.0 mg/kg/injection, schedule: Q04DX002 (ip), vehicle: carboxymethylcellulose (CMC) 106 % of control and 91 % of control | dose: 200.0 mg/kg/injection, schedule: Q04DX003 (ip), vehicle: carboxymethylcellulose (CMC) 102 % of control

CCOC(=O)CCc1c(C)c2cc(C(C)=O)c(O)cc2oc1=O
inactive: [2] 89 % of control | [3] 94 % of control | [4] 103 % of control

CCC(=O)C(CCN(C)C)(c1ccccc1)c1ccccc1
inactive: [11] 110 % of control

O=C(O)C(C(=O)O)C1Cc2cccc3cccc1c23 (stereo unspecified)
inactive: dose: 25.0 mg/kg/injection, schedule: Q04DX003 (ip), vehicle: saline with Tween-80 96 % of control | dose: 50.0 mg/kg/injection, schedule: Q04DX003 (ip), vehicle: saline with Tween-80 98 % of control | [8] 100 % of control

COc1ccc(C23CCCC(=O)C2C2C(=O)CCCC23c2ccc(OC)cc2)cc1 (stereo unspecified)
inactive: dose: 100.0 mg/kg/injection, schedule: Q01DX001 (ip), vehicle: Klucel (hydroxypropylcellulose) (HPC) 100 % of control | dose: 100.0 mg/kg/injection, schedule: Q04DX003 (ip), vehicle: Klucel (hydroxypropylcellulose) (HPC) 100 % of control | dose: 200.0 mg/kg/injection, schedule: Q01DX001 (ip), vehicle: Klucel (hydroxypropylcellulose) (HPC) 97 % of control | dose: 200.0 mg/kg/injection, schedule: Q04DX003 (ip), vehicle: Klucel (hydroxypropylcellulose) (HPC) 101 % of control | dose: 400.0 mg/kg/injection, schedule: Q01DX001 (ip), vehicle: Klucel (hydroxypropylcellulose) (HPC) 100 % of control | dose: 400.0 mg/kg/injection, schedule: Q04DX003 (ip), vehicle: Klucel (hydroxypropylcellulose) (HPC) 95 % of control

[O-][n+]1ccccc1F
inactive: dose: 5.0 mg/kg/injection, schedule: Q01DX001 (ip), vehicle: saline 100 % of control | dose: 10.0 mg/kg/injection, schedule: Q01DX001 (ip), vehicle: saline 102 % of control | [1] 103 % of control | dose: 40.0 mg/kg/injection, schedule: Q01DX001 (ip), vehicle: saline 96 % of control | dose: 80.0 mg/kg/injection, schedule: Q01DX001 (ip), vehicle: saline 98 % of control

CC(C)(C)CCN1C(=O)c2ccccc2C1=O
inactive: [11] 94 % of control | dose: 100.0 mg/kg/injection, schedule: Q01DX009 (ip), vehicle: saline 100 % of control | dose: 200.0 mg/kg/injection, schedule: Q01DX001 (ip), vehicle: saline 92 % of control | dose: 200.0 mg/kg/injection, schedule: Q01DX009 (ip), vehicle: saline 97 % of control | dose: 400.0 mg/kg/injection, schedule: Q01DX001 (ip), vehicle: saline 92 % of control | dose: 400.0 mg/kg/injection, schedule: Q01DX009 (ip), vehicle: saline 97 % of control
